Earlier results on one molecule are cited in US8754096B2, “Piperidinone carboxamide azaindane CGRP receptor antagonists” (Merck Sharp & Dohme Corp., priority 2010, dated 2014).

The subject of this series is migraine. The settings on record: phase III clinical trials, orally bioavailable.

SMILES strings stand for the structures.

As to `O=C(N[C@@H]1CC[C@@H](c2cccc(F)c2F)CN(CC(F)(F)F)C1=O)N1CCC(n2c(=O)[nH]c3ncccc32)CC1` [telcagepant], the antimigraine effectiveness result is listed as “shown antimigraine effectiveness”.
